Measurements reported in patent publication US20150105252A1, “SUBSTITUTED PYRAZOLES AS HERBICIDES” (E I DU PONT DE NEMOURS AND COMPANY, priority 2013, published 2015).

Assays:
Test in all cases: Test C postemergence
crabgrass, large = type: in vivo, Digitaria sanguinalis; conditions: for Plant response rating (scale of 0 to 100 where 0 is no effect and 100 is complete control), Crabgrass, Large: Postemergence, 31 g ai/ha, visually evaluated after 13 to 15 days; for Crabgrass, Large plant response rating / Plant response rating, Crabgrass, Large: postemergence; for Crabgrass, Large plant response rating: 62 g ai/ha, scale 0 to 100
Procedure, shortened: (§1)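 Visual control ratings on a 0–100 scale (100 = complete control) made against untreated controls after 13 to 15 days in greenhouse. Compounds applied in surfactant-containing solvent mixture, either preemergence to loam/sand-sown seeds or postemergence to 1- to 4-leaf plants (2–18 cm) in peat medium.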

kochia = type: in vivo, Kochia scoparia; conditions: for Plant response rating (scale of 0 to 100 where 0 is no effect and 100 is complete control), Kochia: Postemergence, 31 g ai/ha, visually evaluated after 13 to 15 days; for Kochia plant response rating / Plant response rating, Kochia: postemergence; for Kochia plant response rating: 62 g ai/ha, scale 0 to 100
Procedure, shortened: as §1

barnyardgrass = type: in vivo, Echinochloa crus-galli; conditions: for Plant response rating (scale of 0 to 100 where 0 is no effect and 100 is complete control), Barnyardgrass: Postemergence, 31 g ai/ha, visually evaluated after 13 to 15 days; for Barnyardgrass plant response rating / Plant response rating, Barnyardgrass: postemergence; for Barnyardgrass plant response rating: 62 g ai/ha, scale 0 to 100
Procedure, shortened: as §1

wheat = type: in vivo, Triticum aestivum; conditions: postemergence; for Plant response rating, Wheat: 250 g ai/ha, scale 0 to 100 (0 no effect, 100 complete control); for Wheat plant response rating: scale 0 to 100
Procedure, shortened: as §1

blackgrass = type: in vivo, Alopecurus myosuroides; conditions: for Plant response rating (scale of 0 to 100 where 0 is no effect and 100 is complete control), Blackgrass: Postemergence, 31 g ai/ha, visually evaluated after 13 to 15 days; for Blackgrass plant response rating / Plant response rating, Blackgrass: postemergence; for Blackgrass plant response rating: 62 g ai/ha, scale 0 to 100
Procedure, shortened: as §1

pigweed = type: in vivo, Amaranthus retroflexus; conditions: postemergence; for Pigweed plant response rating: 62 g ai/ha, scale 0 to 100
Procedure, shortened: as §1

velvetleaf = type: in vivo, Abutilon theophrasti; conditions: postemergence; for Plant response rating, Velvetleaf: 250 g ai/ha, scale 0 to 100 (0 no effect, 100 complete control); for Velvetleaf plant response rating: scale 0 to 100
Procedure, shortened: as §1

morningglory = type: in vivo, Ipomoea coccinea; conditions: for Plant response rating (scale of 0 to 100 where 0 is no effect and 100 is complete control), Morningglory: Postemergence, 31 g ai/ha, visually evaluated after 13 to 15 days; for Morningglory plant response rating / Plant response rating, Morningglory: postemergence; for Morningglory plant response rating: 62 g ai/ha, scale 0 to 100
Procedure, shortened: as §1

chickweed = type: in vivo, Stellaria media; conditions: for Plant response rating (scale of 0 to 100 where 0 is no effect and 100 is complete control), Chickweed: Postemergence, 31 g ai/ha, visually evaluated after 13 to 15 days; for Chickweed plant response rating / Plant response rating, Chickweed: postemergence; for Chickweed plant response rating: 62 g ai/ha, scale 0 to 100
Procedure, shortened: as §1

galium = type: in vivo, Galium aparine; conditions: for Plant response rating (scale of 0 to 100 where 0 is no effect and 100 is complete control), Galium: Postemergence, 31 g ai/ha, visually evaluated after 13 to 15 days; for Galium plant response rating / Plant response rating, Galium: postemergence; for Galium plant response rating: 62 g ai/ha, scale 0 to 100
Procedure, shortened: as §1

waterhemp = type: in vivo, Amaranthus rudis; conditions: postemergence; for Plant response rating, Waterhemp: 250 g ai/ha, scale 0 to 100 (0 no effect, 100 complete control)
Procedure, shortened: as §1

oat, wild = type: in vivo, Avena fatua; conditions: for Plant response rating (scale of 0 to 100 where 0 is no effect and 100 is complete control), Oat, Wild: Postemergence, 31 g ai/ha, visually evaluated after 13 to 15 days; for Oat, Wild plant response rating / Plant response rating, Oat, Wild: postemergence; for Oat, Wild plant response rating: 62 g ai/ha, scale 0 to 100
Procedure, shortened: as §1

lambsquarters = type: in vivo, Chenopodium album; conditions: for Plant response rating (scale of 0 to 100 where 0 is no effect and 100 is complete control), Lambsquarters: Postemergence, 31 g ai/ha, visually evaluated after 13 to 15 days; for Lambsquarters plant response rating / Plant response rating, Lambsquarters: postemergence; for Lambsquarters plant response rating: 62 g ai/ha, scale 0 to 100
Procedure, shortened: as §1

[1] = 250 g ai/ha, scale 0 to 100 (0 no effect, 100 complete control)
[2] = 125 g ai/ha, scale 0 to 100, 0 no effect, 100 complete control

SMILES: CCCNC(=O)c1cc(CCC)n(Cc2cc(C(F)(F)F)nn2C)n1 [Compound 198]
- Plant response rating (scale of 0 to 100 where 0 is no effect and 100 is complete control), Crabgrass, Large (crabgrass, large): 5
- Crabgrass, Large plant response rating (crabgrass, large): 5
- Plant response rating, Crabgrass, Large (crabgrass, large; [1]): 30
- Plant response rating, Crabgrass, Large (crabgrass, large; [2]): 15
- Plant response rating (scale of 0 to 100 where 0 is no effect and 100 is complete control), Kochia (kochia): 80
- Kochia plant response rating (kochia): 80
- Plant response rating, Kochia (kochia; [1]): 90
- Plant response rating, Kochia (kochia; [2]): 85
- Plant response rating (scale of 0 to 100 where 0 is no effect and 100 is complete control), Barnyardgrass (barnyardgrass): 5
- Barnyardgrass plant response rating (barnyardgrass): 15
- Plant response rating, Barnyardgrass (barnyardgrass; [1]): 35
- Plant response rating, Barnyardgrass (barnyardgrass; [2]): 15
- Plant response rating, Wheat (wheat): 10
- Wheat plant response rating (wheat): 5
- Plant response rating (scale of 0 to 100 where 0 is no effect and 100 is complete control), Blackgrass (blackgrass): 0
- Blackgrass plant response rating (blackgrass): 20
- Plant response rating, Blackgrass (blackgrass; [1]): 30
- Plant response rating, Blackgrass (blackgrass; [2]): 40
- Pigweed plant response rating (pigweed): 60
- Plant response rating, Pigweed (pigweed; [1]): 90
- Plant response rating, Pigweed (pigweed; [2]): 80
- Plant response rating, Velvetleaf (velvetleaf): 50
- Velvetleaf plant response rating (velvetleaf): 40
- Plant response rating (scale of 0 to 100 where 0 is no effect and 100 is complete control), Morningglory (morningglory): 95
- Morningglory plant response rating (morningglory): 60
- Plant response rating, Morningglory (morningglory; [1]): 98
- Plant response rating, Morningglory (morningglory; [2]): 98
- Plant response rating (scale of 0 to 100 where 0 is no effect and 100 is complete control), Chickweed (chickweed): 70
- Chickweed plant response rating (chickweed): 70
- Plant response rating, Chickweed (chickweed; [1]): 80
- Plant response rating, Chickweed (chickweed; [2]): 80
- Plant response rating (scale of 0 to 100 where 0 is no effect and 100 is complete control), Galium (galium): 50
- Galium plant response rating (galium): 85
- Plant response rating, Galium (galium; [1]): 90
- Plant response rating, Galium (galium; [2]): 85
- Plant response rating, Waterhemp (waterhemp): 90
- Plant response rating (scale of 0 to 100 where 0 is no effect and 100 is complete control), Oat, Wild (oat, wild): 10
- Oat, Wild plant response rating (oat, wild): 10
- Plant response rating, Oat, Wild (oat, wild; [1]): 45
- Plant response rating, Oat, Wild (oat, wild; [2]): 20
- Plant response rating (scale of 0 to 100 where 0 is no effect and 100 is complete control), Lambsquarters (lambsquarters): 20
- Lambsquarters plant response rating (lambsquarters): 50
- Plant response rating, Lambsquarters (lambsquarters; [1]): 85
- Plant response rating, Lambsquarters (lambsquarters; [2]): 75

SMILES: CCc1cc(C(=O)NCC(F)(F)F)nn1Cc1cc(OC(F)F)nn1C [Compound 206]
- Plant response rating (scale of 0 to 100 where 0 is no effect and 100 is complete control), Crabgrass, Large (crabgrass, large): 5
- Crabgrass, Large plant response rating (crabgrass, large): 5
- Plant response rating, Crabgrass, Large (crabgrass, large; [1]): 5
- Plant response rating, Crabgrass, Large (crabgrass, large; [2]): 5
- Plant response rating (scale of 0 to 100 where 0 is no effect and 100 is complete control), Kochia (kochia): 30
- Kochia plant response rating (kochia): 35
- Plant response rating, Kochia (kochia; [1]): 75
- Plant response rating, Kochia (kochia; [2]): 45
- Plant response rating (scale of 0 to 100 where 0 is no effect and 100 is complete control), Barnyardgrass (barnyardgrass): 5
- Barnyardgrass plant response rating (barnyardgrass): 5
- Plant response rating, Barnyardgrass (barnyardgrass; [1]): 5
- Plant response rating, Barnyardgrass (barnyardgrass; [2]): 5
- Plant response rating, Wheat (wheat): 0
- Wheat plant response rating (wheat): 0
- Plant response rating (scale of 0 to 100 where 0 is no effect and 100 is complete control), Blackgrass (blackgrass): 0
- Blackgrass plant response rating (blackgrass): 0
- Plant response rating, Blackgrass (blackgrass; [1]): 5
- Plant response rating, Blackgrass (blackgrass; [2]): 5
- Pigweed plant response rating (pigweed): 25
- Plant response rating, Pigweed (pigweed; [1]): 40
- Plant response rating, Pigweed (pigweed; [2]): 40
- Plant response rating, Velvetleaf (velvetleaf): 10
- Velvetleaf plant response rating (velvetleaf): 10
- Plant response rating (scale of 0 to 100 where 0 is no effect and 100 is complete control), Morningglory (morningglory): 40
- Morningglory plant response rating (morningglory): 40
- Plant response rating, Morningglory (morningglory; [1]): 65
- Plant response rating, Morningglory (morningglory; [2]): 60
- Plant response rating (scale of 0 to 100 where 0 is no effect and 100 is complete control), Chickweed (chickweed): 5
- Chickweed plant response rating (chickweed): 5
- Plant response rating, Chickweed (chickweed; [1]): 75
- Plant response rating, Chickweed (chickweed; [2]): 5
- Plant response rating (scale of 0 to 100 where 0 is no effect and 100 is complete control), Galium (galium): 30
- Galium plant response rating (galium): 30
- Plant response rating, Galium (galium; [1]): 45
- Plant response rating, Galium (galium; [2]): 60
- Plant response rating, Waterhemp (waterhemp): 45
- Waterhemp plant response rating (waterhemp; scale 0 to 100): 35
- Plant response rating (scale of 0 to 100 where 0 is no effect and 100 is complete control), Oat, Wild (oat, wild): 0
- Oat, Wild plant response rating (oat, wild): 0
- Plant response rating, Oat, Wild (oat, wild; [1]): 5
- Plant response rating, Oat, Wild (oat, wild; [2]): 5
- Plant response rating (scale of 0 to 100 where 0 is no effect and 100 is complete control), Lambsquarters (lambsquarters): 10
- Lambsquarters plant response rating (lambsquarters): 10
- Plant response rating, Lambsquarters (lambsquarters; [1]): 30
- Plant response rating, Lambsquarters (lambsquarters; [2]): 15
